# From US7795254B2, “Benzomorpholine derivatives and methods of use” (Amgen Inc., priority 2007, dated 2010)
# Where two headings read alike, the source gives them in different places.
# How the values were obtained:
# cytochrome P450 3A4 = cytochrome P450 3A4 (Homo sapiens, UniProt P08684); experiment: Incubation with recombinant human cytochrome P450 3A4; type: in vitro ADME; settings: fortified with NADPH
# Source text: The following compounds identified in Table 16 below were the significant metabolites formed in all species.
# HUVEC = experiment: VEGF induced proliferation, HUVEC cell-based assay; settings: Homo sapiens
# [1] = tested on: VEGF-induced rat corneal angiogenesis; experiment: VEGF-induced rat corneal angiogenesis assay; type: in vivo; settings: for Average # of Vessels: 7 days
# Description: (§1) Tables 2 through 6 below describe the results obtained in the rat corneal in vivo model of angiogenesis for (1) reference compound (free base) 1, (2) Compound A (free base), and (3) the hydrochloride salt of Compound A. A VEGF-induced rat corneal angiogenesis assay was performed using the following procedure: • In Life Aspects: Female CD rats weighing approximately 250 grams were randomized into one of six treatment groups. On the day of surgery the rats were temporarily anesthetized using isoflurane. A vertical incision was made on the midline of the cornea and a pocket was created to separate the connective tissue layers of the stroma. The distance between the apex of the pocket and the limbus was approximately 1.8 mm. A presoaked nylon filter disk was inserted to the apex of the pocket (in the case of the control treatment group, the disks were soaked in a buffer containing bovine serum albumin; in the remaining treatment groups, the disks were soaked in buffer containing bovine serum albumin plus human VEGF to induce angiogenesis). The different treatment groups were then dosed daily with either vehicle (Ora Plus™, a commercially available vehicle) or a designated amount of test compound formulated in vehicle. • Study Termination and Analysis: After seven days, the rats were euthanized and the implanted corneas photographed using a Nikon SV-3 Ophthalmic Slit Lamp. Numerical data were generated from the digital images using the Metamorph image analysis system (Universal Imaging). Three endpoints were analyzed on each corneal image: (1) disk placement distance from the limbus, (2) number of vessels intersecting a perpendicular line at the midpoint of the disk placement distance, and (3) blood vessel area, as determined by thresholding and automated pixel counting. Only the number of blood vessels is shown in the tables as this endpoint correlated well with the blood vessel area. • Statistical Analysis: Results were analyzed with the StatView statistical program using one-way ANOVA, followed by Fisher's least significant difference test. Data are presented as mean±SE and P<0.05 was considered significant. AUC and ED50 values were calculated using methods well known in the art.
# liver microsomes = experiment: In vitro metabolite profiling in liver microsomes; type: in vitro ADME; settings: 10 μM, liver microsomes 1 mg/mL (human, mouse, rat, monkey, rabbit, dog), NADPH, 37° C., 1 hr
# Description: Incubation mixtures were prepared including [14C]-Compound A (10 μM, 0.5 μCi), liver microsomes at 1 mg/mL (human, mouse, rat, monkey, rabbit, dog), MgCl2 (3 mM), and potassium phosphate buffer (100 mM). The reaction was started by adding NADPH (1 mM) and incubations were carried out in a shaking water bath maintained at 37° C. for 1 hr. The reactions were stopped by adding 1 volume of ACN:MeOH 1:1 mixture; vortex mixed; centrifuged at 16000×g. The supernatants were analyzed on a reverse phase HPLC (Agilent 1100, Agilent systems, DE) in line with a radiomatic (β-ram, IN/US systems, FL) detector and an LTQ ion-trap mass spectrometer (ThermoFisher, San Jose, Calif.). HPLC separations were carried out on a phenyl-hexyl luna (150×4.6 mm, 5 μm, Phenomenex Inc) column maintained at 40° C. at a flow rate of 1 mL/min. A binary mobile phase consisting of 10 mM ammonium formate in H2O (solvent A) and 0.1% formic in MeOH (solvent B) was employed under the following gradient conditions: 0 to 2 min, 95% A; 2 to 10 min, 95 to 75% A; 10 to 40 min, 75 to 60% A; 40 to 60 min, 60 to 55% A; 60 to 77 min, 55 to 25% A; 77 to 78 min, 25 to 5% A; 78 to 83 min, 5% A; 83 to 84 min, 5 to 95% A; 84 to 90 min, 95% A. The flow post-column was split such that 80% went to radiomatic detector and the remaining 20% to MS. […]
# Rat Liver Microsome = experiment: Rat liver microsome clearance; type: in vitro ADME; settings: rat liver microsomes
# Source text: (§2) Table 7 provides additional information about the pharmacokinetic profiles of reference compound 1 and Compound A. The data contained in this table was obtained using methods well known in the art.
# [2] = Exposure (AUC) in the rat corneal angiogenesis study; type: in vivo; settings: for AUC: female, CD, rat, in vivo, oral, Table 3, free base
# Description: as §1
# Human Liver Microsome = experiment: Human liver microsome clearance; type: in vitro ADME; settings: human liver microsomes
# Source text: as §2
# [3] = Rat pharmacokinetic profile; settings: in vivo
# Source text: as §2
# Chain of cytochrome P450 3A4 (P08684 whole entry): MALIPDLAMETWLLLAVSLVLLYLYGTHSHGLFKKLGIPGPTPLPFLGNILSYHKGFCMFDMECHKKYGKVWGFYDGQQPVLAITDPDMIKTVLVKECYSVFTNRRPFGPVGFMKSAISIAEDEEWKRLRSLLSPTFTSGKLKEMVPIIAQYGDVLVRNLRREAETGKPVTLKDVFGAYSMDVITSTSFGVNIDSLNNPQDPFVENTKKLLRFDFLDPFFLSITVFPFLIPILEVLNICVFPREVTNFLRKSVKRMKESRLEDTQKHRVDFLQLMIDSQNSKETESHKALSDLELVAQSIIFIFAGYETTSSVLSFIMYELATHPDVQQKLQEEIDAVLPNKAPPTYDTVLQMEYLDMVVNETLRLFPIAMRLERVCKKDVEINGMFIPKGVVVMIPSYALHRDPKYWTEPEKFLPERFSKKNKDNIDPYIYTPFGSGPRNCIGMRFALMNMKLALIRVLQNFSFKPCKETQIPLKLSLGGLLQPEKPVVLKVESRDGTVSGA
smiles,measurement,setting,value
"COc1cc2nccc(Oc3ccc4c(c3)OCCN4C(=O)Nc3cc(C)on3)c2cc1OC [Compound A, 7-((6,7-bis(methyloxy)-4-quinolinyl)oxy)-N-(5-methyl-3-isoxazolyl)-2,3-dihydro-4H-1,4-benzoxazine-4-carboxamide]",metabolites formed with recombinant human cytochrome P450 3A4,cytochrome P450 3A4,These same metabolites were also formed
same,IC50,HUVEC,2 nM
same,ED50,"[1]; Rattus norvegicus, Table 3, free base, number of vessels, read-out: ED50",0.16 mg/kg
same,ED50,"[1]; Rattus norvegicus, Table 6, HCl salt Run #3, number of vessels, read-out: ED50",0.14 mg/kg
same,Average # of Vessels,"[1]; Table 3, free base, VEGF disc + 0.03 mg/kg daily",24.5
same,Average # of Vessels,"[1]; Table 3, free base, VEGF disc + 0.1 mg/kg daily",24.9
same,Average # of Vessels,"[1]; Table 3, free base, VEGF disc + 0.3 mg/kg daily",5.4
same,Average # of Vessels,"[1]; Table 3, free base, VEGF disc + 1.0 mg/kg daily",2.3
same,ED50,"[1]; free base, review of Tables 2 and 3",0.16 mpk
same,turnover in liver microsomes,liver microsomes,Substantial turnover
same,Rat Liver Microsome,Rat Liver Microsome,45 µL/min/mg
same,AUC at ED50,"[2]; Table 6, HCl salt Run #3",338 ng·h/mL
same,average AUC at the ED50,[2]; average of HCl salt studies of Tables 4 and 6 and free base study of Table 3,313 ng·h/mL
same,AUC,"[2]; 0.03 mg/kg, 0.03 mg/kg daily",109 ng·h/mL
same,AUC,"[2]; 0.1 mg/kg, 0.1 mg/kg daily",203 ng·h/mL
same,AUC,"[2]; 0.3 mg/kg, 0.3 mg/kg daily",730 ng·h/mL
same,AUC,"[2]; 1 mg/kg, 1.0 mg/kg daily",2370 ng·h/mL
same,Human Liver Microsome,Human Liver Microsome,17 µL/min/mg
same,clearance,[3]; intravenous,6.67 mL/min/kg
same,Vd,"[3]; intravenous, read-out: Rat Volume of Distribution",1 L/kg
same,half-life,"[3]; iv, I.V., read-out: Rat I.V. T1/2 (converted)",2.1 h
same,bioavailability,"[3]; po, 2 mg/kg, P.O., 2 mpk, read-out: Rat P.O. (2 mpk) % F",59%
same,AUC(0-inf),"[3]; po, 2 mg/kg, P.O., 2 mpk, read-out: Rat P.O. (2 mpk) AUC0-inf",2810 ng·h/mL
same,AUC(0-t),"[3]; po, 2 mg/kg, P.O., 2 mpk, read-out: Rat P.O. (2 mpk) AUC0-t",2800 ng·h/mL
same,half-life,"[3]; po, 2 mpk, P.O., read-out: Rat P.O. T1/2 (converted)",2 h
